# Source: patent US9750805B2, “Calcium flux agonists and methods therefor” (Nant Holdings IP, LLC, priority 2012, dated 2017)
# How the values were obtained:
# [1] = tested on: κB-LUC THP-1 reporter cells; assay: κB-LUC THP-1 reporter response to S. aureus conditioned/spent media (FIGS. 5B-5E); format: cell-based, human; settings: 1:100 conditioned media, 18 hours; 20 nM thapsigargin, 316 nM A23187, 1 μM ionomycin vs DMSO vehicle
# Excerpt: Briefly, a culture of logarithmically dividing S. aureus was washed three times with RPMI 1640 (Cellgro). Concurrently, THP-1 κB-LUC THP-1's (THP-1 cells containing the stable integration of a NF-κB luciferase reporter gene) cultured in RPMI 1640 (Cellgro) supplemented with 10% FBS (Thermo HyClone, Waltham Mass.) and 1% penicillin-streptomycin-fungizone (Thermo HyClone) were washed three times with RPMI 1640 (Cellgro) and transferred to the bottom compartment of a 24-well 0.4 μm cutoff transwell plate (Corning) at a concentration of 1.2 million/mL. Dilutions of the washed S. aureus culture were then added to the top chamber of the transwell system at the indicated initial multiplicities of infection (MOI). The cells were incubated for 18 hours at 37° C. at which time aliquots of 60,000 cells were transferred to wells in a 384-well white bottom plate (Thermo). To evaluate luciferase gene expression, Bright-Glo Luciferase Assay Reagent (Promega) was added to each well and the plates were analyzed for luciferase activity using the Perkin Elmer TopCount NXT system (Perkin Elmer).
# To determine whether the recognition of S. aureus-produced products could be further augmented through modulation of calcium flux, κB-LUC THP-1 reporter cells were incubated in the presence of a 1:100 dilution (V/V) of sterile filtered S. aureus conditioned (i.e. spent) or unused sterile media and treated with a suboptimal dose (20 nM) of thapsigargin or dimethyl sulfoxide (DMSO) vehicle control as described above. Briefly, conditioned media was produced by culturing S. aureus in RPMI with 10% fetal bovine serum overnight in a shaking incubator at 37° C. following which the bacteria were pelleted by centrifugation and the supernatants filter-sterilized using a 0.2 μm filter (VWR Radnor PA). The κB-LUC THP-1 cells were incubated in the presence of the conditioned/spent media for 18 hours prior to luciferase assay as described above.
# [2] = tested on: methicillin-sensitive S. aureus (MSSA); assay: Direct antibiotic activity in liquid culture assay, MSSA; format: cell-based
# Experimental: Consistent with these and previous results regarding their inherent antibiotic activity against S. aureus, the inventors confirmed the direct antibiotic activity of both ionophores for direct antibiotic activity on methicillin-sensitive S. aureus (MSSA).
# To determine the antibiotic sensitivity of S. aureus, cultures were grown overnight in tryptic soy broth (Cellgro). The resulting cultures were used to inoculate new cultures to ensure log phase growth prior to the start of the experiment. Once the bacteria had reached log phase the bacteria was diluted to the appropriate OD600˜0.05 and transferred to a 24-well plate. Compounds of interest were added and plates were incubated in a shaking incubator at 37° C. Aliquots were removed at various time points and their respective OD600 was measured using a BioTek Synergy2 microplate reader (BioTek, Winooski, Vt.). For wells whose turbidity was affected by the addition of the compounds of interest, aliquots were removed and plated on tryptic soy agar (Cellgro) and incubated overnight in a 37° C. incubated and counted the following day. Thus, it should be appreciated that the calcium flux agonists are effective in antimicrobial treatments via an indirect effect, most likely due to the enhanced production of IL-8 and increased NF-κB-driven transcription.
# [3] = tested on: TLR2 ligand response of THP-1 promonocytic leukemia cell line; assay: IL-8 release with TLR2 ligand plus suboptimal calcium flux agonist (FIG. 2); format: cell-based, human; settings: THP-1 cells, suboptimal doses of ionophore; beyond cumulative individual responses (synergy)
# Experimental: (§1) For example, human promonocytic THP-1 cells were incubated in the presence or absence of a suboptimal dose of the TLR2 ligand Pam2CSK4 and compared to similarly treated cells which also received suboptimal doses of ionophore (here: A23187 and ionomycin). […] In another example, NF-κB THP-1 cells (a THP-1-derived transfectant line harboring an NF-κB-driven luciferase expression cassette) were cultivated in the presence or absence of a suboptimal dose of the TLR2 ligand Pam2CSK4 and compared to similarly treated cells that also received suboptimal doses of various SERCA inhibitors.
# Here, the ionophores A23187 and ionomycin, as well as the SERCA inhibitor thapsigargin synergize with the TLR2 ligand (Pam2CYS) in the activation of cytokine release from the human THP-1 promonocytic leukemia cell line. It should be especially noted that while the TLR2 ligand alone provided for about 5 ng/ml IL-8 response, addition of a suboptimal dose of the calcium flux agonists (e.g. 20 nM for thapsigargin, 316 nM for A23187, and 1 μM for ionomycin) produced more than 10-fold quantities of IL-8 production in the cells.
# NF-κB THP-1 cells = assay: NF-κB luciferase reporter synergy with TLR2 ligand and effect of Ca2+ modulating compounds (FIG. 4); format: cell-based, human; settings: NF-κB THP-1 cells, suboptimal doses of SERCA inhibitors; beyond cumulative individual responses (synergy)
# Experimental: as §1
# The inventors further investigated if the nature of calcium flux was of significance as increased intracellular calcium may have different origins. To that effect, the inventors used various calcium signaling modulators to investigate the nature of the calcium flux and contribution. As can be readily taken from the data shown, extracellular calcium flux into the cell was critical for synergistic amplification of calcium signaling. More specifically, FIG. 4 illustrates the effects of different Ca^2+ modulating compounds on synergy with respect to NF-κB activation.
# [4] = molecular target: sarco/endoplasmic reticulum Ca2+ ATPases (SERCA); settings: cited from earlier work
# S. aureus = assay: Killing of intracellular S. aureus by thapsigargin-treated differentiated THP-1 cells (FIG. 11); format: cell-based, human; settings: 1 day with 20 nM thapsigargin vs vehicle, MOI of 10
# Experimental: Briefly, a logarithmically dividing S. aureus was pelleted (2000×g for 10 min) and washed three times with Hank's Buffered Salt Solution (Cellgro). Concurrently, 2 day differentiated THP-1 cells (using 1 uM retinoic acid and 1 uM cholecalciferaol, Sigma-Aldrich) followed by 1 day with 20 nM thapsigargin or vehicle were collected and washed in Hank's Buffered Salt Solution. Differentiated cells were supplemented with 10% human serum (Innovative Research) and chilled on ice for 30 minutes. After the 30 minutes, S. aureus (MOI of 10) was added on ice for an additional 20 minutes to synchronize binding. Tubes were then incubated for 20 minutes at 37° C. After 20 minutes, 10 U/mL of lysostaphin (Sigma-Aldrich) was added to eliminate non-internalized bacteria. At the desired time points (20, 30, 60 minutes) 20 uL aliquots were removed and diluted into 10 mL of water. The dilution tubes were vortex and allowed to sit at room temp for 10 minutes to ensure proper lysis of the primary cells. After 10 minutes, the dilution tubes were centrifuged for 10 minutes at 2000×g and the remaining S. aureus was concentrated 20 fold and plated in triplicate on tryptic soy agar (Cellgro) and incubated overnight at 37° C. prior to colony enumeration.
SMILES,NF-κB reporter response to S. aureus conditioned/spent media [1],direct antibiotic activity against MSSA [2],amount of IL-8 produced with suboptimal TLR2 ligand Pam2CSK4 [3],amount of luciferase produced with suboptimal TLR2 ligand Pam2CSK4 (NF-κB THP-1 cells),affinity constant of Thapsigargin:SERCA binding [4],antimicrobial activity of treated cells against internalized S. aureus (S. aureus)
"CNc1ccc2oc(C[C@H]3O[C@@]4(CC[C@H]3C)O[C@H]([C@H](C)C(=O)c3ccc[nH]3)[C@H](C)C[C@H]4C)nc2c1C(=O)O [A23187, calcimycin]",significantly enhanced,the more active compound,significantly increased,–,–,–
C[C@H](CCC(=O)O)C[C@H](C)C[C@H](C)C(=O)/C=C(\O)[C@H](C)C[C@H](C)C/C=C/[C@@H](C)[C@@H](O)[C@@H](C)[C@@H](O)C[C@@H]1CC[C@@](C)([C@H]2CC[C@@](C)([C@@H](C)O)O2)O1 [ionomycin],significantly enhanced,–,significantly increased,–,–,–
C/C=C(/C)C(=O)O[C@H]1C(C)=C2[C@H]([C@@H]1OC(=O)CCCCCCC)[C@@](C)(OC(C)=O)C[C@H](OC(=O)CCC)[C@@]1(O)[C@H]2OC(=O)[C@@]1(C)O [thapsigargin],significantly enhanced,–,–,significantly increased,low picomolar range,greater antimicrobial activity
